Measured values as given in ChEMBL document CHEMBL4507276 (2021).

Assays:
[1] = target: Bombesin receptor subtype-3 (Homo sapiens) (UniProt P32247); assay: BB3H_AGON Cerep selectivity data (BI); conditions: filed as agonist, Compound concentration 20.0 uM
[2] = target: Muscarinic acetylcholine receptor M3 (Homo sapiens) (UniProt P20309); assay: M3/H Cerep selectivity data (BI); conditions: Compound concentration 20.0 uM
[3] = target: Urotensin-2 receptor (Homo sapiens) (UniProt Q9UKP6); assay: UT1/H AG Cerep selectivity data (BI); conditions: filed as agonist, Compound concentration 20.0 uM
[4] = target: Gamma-aminobutyric acid receptor subunit alpha-1 (Rattus norvegicus) (UniProt P62813); assay: GABAACENTR Eurofins-Panlabs selectivity data (BI); conditions: Compound concentration 10.0 uM
[5] = target: T1, Serine/threonine-protein kinase BRSK1 (Homo sapiens) (UniProt Q8TDC3); assay: BRSK1 Invitrogen selectivity data (BI); conditions: Compound concentration 3.0 uM
T1 sequence (whole entry): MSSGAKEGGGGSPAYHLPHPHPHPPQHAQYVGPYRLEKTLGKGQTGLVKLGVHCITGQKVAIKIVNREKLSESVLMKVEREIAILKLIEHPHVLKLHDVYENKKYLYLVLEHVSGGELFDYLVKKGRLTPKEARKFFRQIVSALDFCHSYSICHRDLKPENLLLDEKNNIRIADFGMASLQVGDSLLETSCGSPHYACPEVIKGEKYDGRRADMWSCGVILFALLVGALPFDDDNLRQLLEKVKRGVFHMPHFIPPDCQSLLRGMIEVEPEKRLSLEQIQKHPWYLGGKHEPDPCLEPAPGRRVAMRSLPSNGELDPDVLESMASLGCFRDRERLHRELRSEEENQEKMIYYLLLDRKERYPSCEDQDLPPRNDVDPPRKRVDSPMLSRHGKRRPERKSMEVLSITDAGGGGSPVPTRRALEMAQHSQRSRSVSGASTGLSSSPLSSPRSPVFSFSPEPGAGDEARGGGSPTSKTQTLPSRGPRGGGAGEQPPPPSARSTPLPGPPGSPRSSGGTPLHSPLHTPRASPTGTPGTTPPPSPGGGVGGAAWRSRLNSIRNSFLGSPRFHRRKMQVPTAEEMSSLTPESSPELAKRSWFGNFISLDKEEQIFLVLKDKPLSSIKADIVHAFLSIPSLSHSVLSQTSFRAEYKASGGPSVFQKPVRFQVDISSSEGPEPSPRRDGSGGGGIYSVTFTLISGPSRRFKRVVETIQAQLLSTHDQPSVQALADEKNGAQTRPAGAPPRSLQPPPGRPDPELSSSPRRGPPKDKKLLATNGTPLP

[6] = target: T2, Inhibitor of nuclear factor kappa-B kinase subunit alpha (Homo sapiens) (UniProt O15111); assay: CHUK_IKKA Invitrogen selectivity data (BI); conditions: Compound concentration 3.0 uM
T2 sequence (whole entry): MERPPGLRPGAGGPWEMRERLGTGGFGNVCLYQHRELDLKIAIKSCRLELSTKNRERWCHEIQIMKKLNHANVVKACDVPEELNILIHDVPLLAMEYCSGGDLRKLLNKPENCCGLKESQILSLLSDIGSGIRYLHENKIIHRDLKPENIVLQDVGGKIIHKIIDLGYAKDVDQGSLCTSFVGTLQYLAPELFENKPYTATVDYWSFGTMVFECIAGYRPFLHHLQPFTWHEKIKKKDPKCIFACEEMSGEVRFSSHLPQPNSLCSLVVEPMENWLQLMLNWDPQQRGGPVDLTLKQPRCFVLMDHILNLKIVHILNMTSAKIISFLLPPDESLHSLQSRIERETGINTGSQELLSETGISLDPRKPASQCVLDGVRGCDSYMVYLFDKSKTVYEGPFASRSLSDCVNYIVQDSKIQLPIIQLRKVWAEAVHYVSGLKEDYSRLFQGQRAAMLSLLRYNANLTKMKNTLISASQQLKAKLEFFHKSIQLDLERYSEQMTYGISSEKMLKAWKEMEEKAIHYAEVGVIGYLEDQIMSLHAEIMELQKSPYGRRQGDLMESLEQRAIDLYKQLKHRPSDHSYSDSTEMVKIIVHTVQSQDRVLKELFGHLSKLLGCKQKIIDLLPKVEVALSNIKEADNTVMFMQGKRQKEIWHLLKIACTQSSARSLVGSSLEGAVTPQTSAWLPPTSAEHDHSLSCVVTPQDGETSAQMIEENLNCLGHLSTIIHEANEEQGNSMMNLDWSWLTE

[7] = target: Casein kinase I isoform gamma-2 (Homo sapiens) (UniProt P78368); assay: CSNK1G2 Invitrogen selectivity data (BI); conditions: Compound concentration 3.0 uM
[8] = target: T3, Ephrin type-B receptor 3 (Homo sapiens) (UniProt P54753); assay: EPHB3 Invitrogen selectivity data (BI); conditions: Compound concentration 3.0 uM
T3 sequence (whole entry): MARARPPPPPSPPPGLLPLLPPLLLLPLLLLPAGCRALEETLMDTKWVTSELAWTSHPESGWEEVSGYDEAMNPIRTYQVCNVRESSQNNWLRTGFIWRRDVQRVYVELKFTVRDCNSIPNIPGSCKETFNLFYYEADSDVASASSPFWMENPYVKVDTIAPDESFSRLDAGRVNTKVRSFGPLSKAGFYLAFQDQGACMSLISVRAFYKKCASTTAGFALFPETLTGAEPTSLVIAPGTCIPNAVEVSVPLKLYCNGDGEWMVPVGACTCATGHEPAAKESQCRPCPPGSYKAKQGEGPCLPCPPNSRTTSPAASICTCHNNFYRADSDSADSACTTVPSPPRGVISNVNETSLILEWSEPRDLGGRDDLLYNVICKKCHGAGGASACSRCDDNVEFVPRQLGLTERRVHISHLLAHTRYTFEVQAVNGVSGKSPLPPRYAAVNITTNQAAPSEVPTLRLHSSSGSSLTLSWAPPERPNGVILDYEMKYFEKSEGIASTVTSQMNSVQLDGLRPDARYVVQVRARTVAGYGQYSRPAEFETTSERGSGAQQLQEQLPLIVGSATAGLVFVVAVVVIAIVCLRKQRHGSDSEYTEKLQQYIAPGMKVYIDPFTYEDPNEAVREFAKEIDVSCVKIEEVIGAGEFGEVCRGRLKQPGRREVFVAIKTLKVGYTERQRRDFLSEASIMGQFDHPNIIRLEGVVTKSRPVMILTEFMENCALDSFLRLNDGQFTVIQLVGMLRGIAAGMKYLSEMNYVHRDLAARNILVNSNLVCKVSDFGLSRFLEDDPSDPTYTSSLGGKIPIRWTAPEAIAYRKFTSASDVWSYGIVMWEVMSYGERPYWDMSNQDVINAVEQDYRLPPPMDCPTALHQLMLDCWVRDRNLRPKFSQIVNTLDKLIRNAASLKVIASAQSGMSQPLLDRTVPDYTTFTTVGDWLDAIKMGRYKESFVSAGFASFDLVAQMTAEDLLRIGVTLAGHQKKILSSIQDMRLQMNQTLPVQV

[9] = target: LIM domain kinase 2 (Homo sapiens) (UniProt P53671); assay: LIMK2 Invitrogen selectivity data (BI); conditions: Compound concentration 3.0 uM
[10] = target: Protein kinase C delta type (Homo sapiens) (UniProt Q05655); assay: PRKCD Invitrogen selectivity data (BI); conditions: Compound concentration 3.0 uM
[11] = target: Tyrosine-protein kinase Srms (Homo sapiens) (UniProt Q9H3Y6); assay: SRMS Invitrogen selectivity data (BI); conditions: Compound concentration 3.0 uM

Measured: residual activity

Chain of Tyrosine-protein kinase Srms (Homo sapiens) (Q9H3Y6 whole entry): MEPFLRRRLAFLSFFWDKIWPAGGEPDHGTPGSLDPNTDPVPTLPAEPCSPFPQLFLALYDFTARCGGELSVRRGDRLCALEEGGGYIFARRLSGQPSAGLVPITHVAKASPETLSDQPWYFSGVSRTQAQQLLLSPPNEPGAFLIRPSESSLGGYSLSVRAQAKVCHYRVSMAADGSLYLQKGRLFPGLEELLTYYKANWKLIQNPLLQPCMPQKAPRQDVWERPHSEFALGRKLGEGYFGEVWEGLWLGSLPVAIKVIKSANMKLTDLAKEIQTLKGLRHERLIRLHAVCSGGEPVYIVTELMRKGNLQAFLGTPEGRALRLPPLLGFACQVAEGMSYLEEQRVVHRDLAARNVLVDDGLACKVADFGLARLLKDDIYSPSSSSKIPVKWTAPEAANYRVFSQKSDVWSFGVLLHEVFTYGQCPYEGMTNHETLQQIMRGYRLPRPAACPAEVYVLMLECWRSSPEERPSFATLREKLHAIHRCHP
Chain of Gamma-aminobutyric acid receptor subunit alpha-1 (Rattus norvegicus) (P62813 whole entry): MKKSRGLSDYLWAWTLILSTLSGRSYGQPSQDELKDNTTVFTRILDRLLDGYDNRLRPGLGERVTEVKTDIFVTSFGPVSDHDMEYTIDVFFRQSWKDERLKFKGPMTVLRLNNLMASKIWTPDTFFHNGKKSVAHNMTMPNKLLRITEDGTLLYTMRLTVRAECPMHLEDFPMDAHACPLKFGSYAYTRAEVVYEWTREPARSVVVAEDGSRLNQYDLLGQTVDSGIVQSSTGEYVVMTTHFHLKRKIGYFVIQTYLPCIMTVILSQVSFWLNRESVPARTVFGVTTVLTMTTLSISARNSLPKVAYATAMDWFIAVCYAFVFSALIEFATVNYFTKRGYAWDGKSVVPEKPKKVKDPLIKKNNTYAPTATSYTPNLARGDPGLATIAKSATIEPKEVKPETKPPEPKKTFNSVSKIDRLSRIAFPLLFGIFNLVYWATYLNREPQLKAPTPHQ
Chain of LIM domain kinase 2 (Homo sapiens) (P53671 whole entry, looked up, the tested form may be a part): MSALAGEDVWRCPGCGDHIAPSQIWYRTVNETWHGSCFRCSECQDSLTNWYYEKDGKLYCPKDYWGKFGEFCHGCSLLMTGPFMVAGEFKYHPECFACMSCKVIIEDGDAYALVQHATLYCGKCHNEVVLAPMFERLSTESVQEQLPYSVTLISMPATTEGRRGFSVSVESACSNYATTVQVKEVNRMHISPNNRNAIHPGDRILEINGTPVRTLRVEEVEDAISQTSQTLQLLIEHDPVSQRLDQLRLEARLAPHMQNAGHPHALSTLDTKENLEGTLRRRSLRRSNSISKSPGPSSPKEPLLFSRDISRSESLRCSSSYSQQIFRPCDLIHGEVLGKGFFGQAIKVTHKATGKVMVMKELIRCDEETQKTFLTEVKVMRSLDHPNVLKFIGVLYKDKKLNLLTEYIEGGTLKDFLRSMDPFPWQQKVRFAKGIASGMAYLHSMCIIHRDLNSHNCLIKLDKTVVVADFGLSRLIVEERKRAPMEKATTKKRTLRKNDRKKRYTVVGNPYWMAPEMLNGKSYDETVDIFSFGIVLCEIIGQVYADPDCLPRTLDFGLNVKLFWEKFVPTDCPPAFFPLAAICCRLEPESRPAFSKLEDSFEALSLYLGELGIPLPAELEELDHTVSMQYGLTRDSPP
Chain of Casein kinase I isoform gamma-2 (Homo sapiens) (P78368 whole entry, looked up, canonical isoform): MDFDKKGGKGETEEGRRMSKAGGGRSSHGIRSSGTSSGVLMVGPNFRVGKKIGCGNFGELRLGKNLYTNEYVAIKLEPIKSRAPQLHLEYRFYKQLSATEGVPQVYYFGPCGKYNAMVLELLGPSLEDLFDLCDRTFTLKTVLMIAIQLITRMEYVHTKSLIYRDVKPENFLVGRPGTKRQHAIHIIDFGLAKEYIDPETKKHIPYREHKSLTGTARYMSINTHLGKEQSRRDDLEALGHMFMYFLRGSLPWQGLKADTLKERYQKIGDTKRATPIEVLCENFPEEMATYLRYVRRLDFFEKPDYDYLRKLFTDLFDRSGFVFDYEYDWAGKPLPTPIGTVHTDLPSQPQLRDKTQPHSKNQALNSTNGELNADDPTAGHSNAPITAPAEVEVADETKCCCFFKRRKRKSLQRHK
Chain of Protein kinase C delta type (Homo sapiens) (Q05655 whole entry, looked up): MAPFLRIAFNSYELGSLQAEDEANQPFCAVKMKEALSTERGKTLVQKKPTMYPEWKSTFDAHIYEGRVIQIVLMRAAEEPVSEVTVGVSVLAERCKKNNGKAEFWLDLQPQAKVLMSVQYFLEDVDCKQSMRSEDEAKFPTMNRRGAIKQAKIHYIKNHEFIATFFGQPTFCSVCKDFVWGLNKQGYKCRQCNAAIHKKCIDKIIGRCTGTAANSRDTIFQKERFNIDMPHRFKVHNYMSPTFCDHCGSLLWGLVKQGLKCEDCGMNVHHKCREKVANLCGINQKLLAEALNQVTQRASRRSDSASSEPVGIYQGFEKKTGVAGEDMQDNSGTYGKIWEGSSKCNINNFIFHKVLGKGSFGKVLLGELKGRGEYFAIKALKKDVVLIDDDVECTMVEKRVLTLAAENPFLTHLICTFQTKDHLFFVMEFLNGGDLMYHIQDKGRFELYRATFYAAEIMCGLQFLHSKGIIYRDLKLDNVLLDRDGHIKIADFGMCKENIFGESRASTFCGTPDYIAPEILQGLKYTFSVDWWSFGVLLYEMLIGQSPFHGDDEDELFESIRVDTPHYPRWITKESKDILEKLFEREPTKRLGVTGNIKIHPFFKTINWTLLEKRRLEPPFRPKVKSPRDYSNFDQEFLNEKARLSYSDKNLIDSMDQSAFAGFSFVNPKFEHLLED
Chain of Bombesin receptor subtype-3 (Homo sapiens) (P32247 whole entry): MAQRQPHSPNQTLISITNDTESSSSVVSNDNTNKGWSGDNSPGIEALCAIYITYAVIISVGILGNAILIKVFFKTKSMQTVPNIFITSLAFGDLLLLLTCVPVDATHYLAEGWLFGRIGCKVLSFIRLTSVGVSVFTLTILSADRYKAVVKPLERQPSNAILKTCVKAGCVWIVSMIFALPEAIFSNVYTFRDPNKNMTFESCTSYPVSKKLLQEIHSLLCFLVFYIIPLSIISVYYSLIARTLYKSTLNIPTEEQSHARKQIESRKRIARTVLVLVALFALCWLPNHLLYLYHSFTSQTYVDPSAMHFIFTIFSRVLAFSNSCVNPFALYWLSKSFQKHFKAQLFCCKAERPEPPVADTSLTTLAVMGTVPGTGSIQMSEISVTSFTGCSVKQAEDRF
Chain of Muscarinic acetylcholine receptor M3 (Homo sapiens) (P20309 whole entry, looked up): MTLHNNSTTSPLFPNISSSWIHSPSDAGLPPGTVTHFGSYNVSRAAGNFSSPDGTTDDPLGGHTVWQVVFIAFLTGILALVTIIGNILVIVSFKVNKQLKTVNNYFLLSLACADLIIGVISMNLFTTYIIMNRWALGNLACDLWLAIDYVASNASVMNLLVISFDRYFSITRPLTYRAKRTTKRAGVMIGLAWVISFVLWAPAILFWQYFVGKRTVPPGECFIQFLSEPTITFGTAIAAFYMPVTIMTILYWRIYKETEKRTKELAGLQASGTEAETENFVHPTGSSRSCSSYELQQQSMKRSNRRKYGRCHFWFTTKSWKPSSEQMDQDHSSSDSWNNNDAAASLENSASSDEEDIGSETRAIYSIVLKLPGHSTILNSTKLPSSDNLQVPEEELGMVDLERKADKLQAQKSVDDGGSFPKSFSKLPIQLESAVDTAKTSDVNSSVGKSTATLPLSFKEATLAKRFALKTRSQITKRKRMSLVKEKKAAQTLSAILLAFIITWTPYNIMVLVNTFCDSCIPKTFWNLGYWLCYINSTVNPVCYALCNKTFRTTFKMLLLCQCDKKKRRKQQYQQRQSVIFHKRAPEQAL
Chain of Urotensin-2 receptor (Homo sapiens) (Q9UKP6 whole entry): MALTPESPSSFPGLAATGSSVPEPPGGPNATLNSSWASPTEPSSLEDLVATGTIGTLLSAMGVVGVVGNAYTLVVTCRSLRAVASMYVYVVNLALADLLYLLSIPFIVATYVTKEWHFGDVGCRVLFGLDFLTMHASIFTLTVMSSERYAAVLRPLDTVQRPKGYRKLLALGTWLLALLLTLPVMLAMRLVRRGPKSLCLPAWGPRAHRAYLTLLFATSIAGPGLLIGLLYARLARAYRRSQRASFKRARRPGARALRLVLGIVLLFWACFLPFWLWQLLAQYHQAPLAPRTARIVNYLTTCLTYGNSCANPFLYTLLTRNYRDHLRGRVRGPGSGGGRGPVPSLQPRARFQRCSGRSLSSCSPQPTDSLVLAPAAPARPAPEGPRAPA

CN(C)C(=O)Cn1cc(-c2nc([C@@](C)(c3ccc(-c4cnc(N)nc4)cc3)C3CC3)no2)cn1 [BI 665915]
inactive: [1] 108% | [2] 83% | [3] 99% | [4] 115% | [5] 90.5% | [6] 99.5% | [7] 98.5% | [8] 97% | [9] 89% | [10] 103% | [11] 98.5%
